Laboratory results reported in ChEMBL document CHEMBL4265892, “New series of 3,5-disubstituted tetrahydro-2H-1,3,5-thiadiazine thione (THTT) derivatives: Synthesis and potent antileishmanial activity” (Bioorg Med Chem Lett, 2018).

What was measured:
Leishmania major = test: Antileishmanial activity against Leishmania major promastigotes after 72 hrs by Neubauer chamber based cell counting method; format: functional, organism-based
[1] = Cytotoxicity against […] 3T3 cells assessed as inhibition of cell viability at 50 uM after 48 hrs by MTT assay; format: cell-based; settings: read-out: INH
[2] = Cytotoxicity against […] 3T3 cells after 48 hrs by MTT assay; format: cell-based

IC50 (Leishmania major) [µM] | SMILES | other results
24.2 | CCCN1CSC(=S)N(C(C)c2ccccc2)C1 (stereo not given) | –
93.1 | CCCN1CN(CC(=O)OCc2ccccc2)CSC1=S | –
36.5 | CCCCN1CN(CC(=O)OCC)CSC1=S | –
32.2 | CC(c1ccccc1)N1CN(CCO)CSC1=S (stereo not given) | –
0.31 | C[C@@H]1[C@H](O)[C@@H](C)/C=C/C=C/C=C/C=C/C=C/C=C/C=C/[C@H](O[C@@H]2O[C@H](C)[C@@H](O)[C@H](N)[C@@H]2O)C[C@@H]2O[C@](O)(C[C@@H](O)C[C@@H](O)[C@H](O)CC[C@@H](O)C[C@@H](O)CC(=O)O[C@H]1C)C[C@H](O)[C@H]2C(=O)O [AMPHOTERICIN B] | –
30.7 | CC(c1ccccc1)N1CN(CC(=O)O)CSC1=S (stereo not given) | –
33.1 | CCN1CN(CC(=O)O)CSC1=S | –
39.3 | CCCN1CN(CC(=O)O)CSC1=S | cytotoxicity at 48 h, 50 µM [1]: 56.6%; IC50 ([2]; NIH3T3, 48 h, read-out: IC50): 38.1 µM
39.4 | O=C(O)CN1CN(CCO)CSC1=S | –
203 | CCCN1CN(CC(=O)OC)CSC1=S | cytotoxicity at 48 h, 50 µM [1]: 36.9%; IC50 [2]: Not Active
107 | CCCN1CN(CC(=O)OCC)CSC1=S | –
45.8 | CCN1CSC(=S)N(CC(=O)O)C1 | –
46.2 | CCN1CSC(=S)N(C(C)c2ccccc2)C1 (stereo not given) | –
24.6 | CCCCN1CN(CC(=O)O)CSC1=S | –
21.4 | CCCCN1CSC(=S)N(C(C)c2ccccc2)C1 (stereo not given) | –
38.4 | CCN1CSC(=S)N(CC)C1 | –
15.5 | COc1ccc(CN2CN(CC(=O)O)CSC2=S)cc1OC | cytotoxicity at 48 h, 50 µM [1]: 86.8%; IC50 ([2]; NIH3T3, 48 h, read-out: IC50): 22.7 µM
21.4 | CC(C)N1CSC(=S)N(C(C)c2ccccc2)C1 (stereo not given) | –
69.6 | CCCN1CSC(=S)N(CC(=O)O)C1 | –
– | C[C@@H]1C[C@@H]([C@H](O)CC2CC(=O)NC(=O)C2)C(=O)[C@@H](C)C1 [CYCLOHEXIMIDE] | cytotoxicity at 48 h, 50 µM [1]: 66%; IC50 ([2]; NIH3T3, 48 h, read-out: IC50): 0.61 µM
15 | N=C(N)c1ccc(OCCCCCOc2ccc(C(=N)N)cc2)cc1 [PENTAMIDINE] | –
36.6 | CCCCN1CSC(=S)N(CC(=O)O)C1 | –
137 | CC(C)N1CN(CC(=O)O)CSC1=S | –
